Measured values as given in ChEMBL document CHEMBL1155765, “Haterumaimides F-I, four new cytotoxic diterpene alkaloids from an ascidian Lissoclinum species” (J Nat Prod, 2001).

Columns and labels:
[1] = Toxicity against Sea urchin fertilized eggs assessed as inhibition of cell division at 5 ppm; set-up: species or system Egg; conditions: echinoidea
[2] = test system: P388; assay: Cytotoxicity against mouse P388 cells; format: functional, cell-based

`CC1(C)C[C@H](Cl)C[C@]2(C)[C@H]3C[C@@H]([C@H]4CC(=O)NC4=O)O[C@@]3(C)CC(=O)[C@@H]12` [HATERUMAIMIDE I] showed an inhibition at 5 ppm [1] of 80% and an IC50 [2] greater than 10 µg/mL.
